Reference: patent US12152020B2, “Pesticidally active azole-amide compounds” (SYNGENTA PARTICIPATIONS AG, priority 2018, dated 2024)

How the values were obtained:
Format in all cases: in vivo
[1] = test system: Plutella xylostella (Diamondback Moth); assay: Example B14: Plutella xylostella, artificial diet in 96-well plates, eggs; settings: 216 h, application rate of 500 ppm, 9 days after infestation
Procedure: Example B14: Plutella xylostella (Diamondback Moth)
96-well microtiter plates containing artificial diet were treated with aqueous test solutions, prepared from 10′000 ppm DMSO stock solutions, by a liquid handling robot. After drying, eggs (˜30 per well) were infested onto a netted lid which was suspended above the diet. The eggs hatch and L1 larvae move down to the diet. The samples were assessed for mortality 9 days after infestation.
The following compounds gave an effect of at least 80% average mortality at an application rate of 500 ppm: • P2, P3, P5, P6, P7, P9, P15, P16, P17, P18, P20, P22, P24, P25, P30, P31, P32, P33, P38.

[2] = test system: Diabrotica balteata (Corn Root Worm); assay: Example B1: Diabrotica balteata, maize sprouts sprayed, L2 larvae; settings: 96 h, application rate of 200 ppm, 4 days after infestation, in comparison to untreated samples, read-out: effect in at least one of the two categories (mortality or growth inhibition)
Procedure: Example B1: Diabrotica balteata (Corn Root Worm)
Maize sprouts placed onto an agar layer in 24-well microtiter plates were treated with aqueous test solutions prepared from 10′000 ppm DMSO stock solutions by spraying. After drying, the plates were infested with L2 larvae (6 to 10 per well). The samples were assessed for mortality and growth inhibition in comparison to untreated samples 4 days after infestation.
The following compounds gave an effect of at least 80% in at least one of the two categories (mortality or growth inhibition) at an application rate of 200 ppm: • P2, P3, P4, P5, P6, P7, P8, P14, P15, P16, P17, P18, P19, P20, P21, P22, P23, P24, P25, P27, P28, P29, P30, P31, P32, P33, P34, P35

[3] = test system: Chilo suppressalis (Striped Rice Stemborer); assay: Example B4: Chilo suppressalis, artificial diet, L2 larvae; settings: 144 h, application rate of 200 ppm, 6 days after infestation, in comparison to untreated samples, read-out: control in at least one of the categories (mortality, anti-feedant effect, or growth inhibition)
Procedure: Example B4: Chilo suppressalis (Striped Rice Stemborer)
24-well microtiter plates with artificial diet were treated with aqueous test solutions prepared from 10′000 ppm DMSO stock solutions by pipetting. After drying, the plates were infested with L2 larvae (6-8 per well). The samples were assessed for mortality, anti-feeding effect, and growth inhibition in comparison to untreated samples 6 days after infestation. Control of Chilo suppressalis by a test sample is given when at least one of the categories mortality, anti-feedant effect, and growth inhibition is higher than the untreated sample.

[4] = test system: Plutella xylostella (Diamond Back Moth); assay: Example B5: Plutella xylostella, artificial diet in 24-well plates, eggs; settings: 192 h, application rate of 200 ppm, 8 days after infestation, in comparison to untreated samples, read-out: effect in at least one of the two categories (mortality or growth inhibition)
Procedure: Example B5: Plutella xylostella (Diamond Back Moth)
24-well microtiter plates with artificial diet were treated with aqueous test solutions prepared from 10′000 ppm DMSO stock solutions by pipetting. After drying, Plutella eggs were pipetted through a plastic stencil onto a gel blotting paper and the plate was closed with it. The samples were assessed for mortality and growth inhibition in comparison to untreated samples 8 days after infestation.
The following compounds gave an effect of at least 80% in at least one of the two categories (mortality or growth inhibition) at an application rate of 200 ppm: • P1, P2, P3, P4, P5, P7, P8, P9, P14, P15, P16, P17, P18, P21, P22, P23, P24, P25, P27, P28, P29, P30, P31, P32, P33, P34, P35, P36

[5] = test system: Myzus persicae (Green Peach Aphid); assay: Example B13: Myzus persicae, sucrose solution under Parafilm, 96-well; settings: 120 h, application rate of 50 ppm, 5 days after infestation
Description: Example B13: Myzus persicae (Green Peach Aphid)
Test compounds prepared from 10′000 ppm DMSO stock solutions were applied by a liquid handling robot into 96-well microtiter plates and mixed with a sucrose solution. Parafilm was stretched over the 96-well microtiter plate and a plastic stencil with 96 holes was placed onto the plate. Aphids were sieved into the wells directly onto the Parafilm. The infested plates were closed with a gel blotting card and a second plastic stencil and then turned upside down. The samples were assessed for mortality 5 days after infestation.

[6] = test system: Spodoptera littoralis (Egyptian Cotton Leaf Worm); assay: Example B9: Spodoptera littoralis, cotton leaf discs sprayed, L1 larvae; settings: foliar, 72 h, application rate of 200 ppm, five L1 larvae, 3 days after infestation, in comparison to untreated samples, read-out: control in at least one of the categories (mortality, anti-feedant effect, or growth inhibition)
Procedure: Example B9: Spodoptera littoralis (Egyptian Cotton Leaf Worm)
Cotton leaf discs were placed onto agar in 24-well microtiter plates and sprayed with aqueous test solutions prepared from 10′000 ppm DMSO stock solutions. After drying the leaf discs were infested with five L1 larvae. The samples were assessed for mortality, anti-feeding effect, and growth inhibition in comparison to untreated samples 3 days after infestation. Control of Spodoptera littoralis by a test sample is given when at least one of the categories mortality, anti-feedant effect, and growth inhibition is higher than the untreated sample.

[7] = test system: Myzus persicae (Green Peach Aphid); assay: Example B8: Myzus persicae intrinsic activity, sucrose solution under Parafilm, 24-well; settings: 120 h, test rate of 12 ppm, 5 days after infestation
Description: Example B8: Myzus persicae (Green Peach Aphid): Intrinsic Activity
Test compounds prepared from 10′000 ppm DMSO stock solutions were applied by pipette into 24-well microtiter plates and mixed with sucrose solution. The plates were closed with a stretched Parafilm. A plastic stencil with 24 holes was placed onto the plate and infested pea seedlings were placed directly on the Parafilm. The infested plate was closed with a gel blotting paper and another plastic stencil and then turned upside down. The samples were assessed for mortality 5 days after infestation.

CC(c1nc(-c2ccccc2)nn1-c1ncccn1)N(C)C(=O)c1cc(C(F)(F)F)cc(C(F)(F)F)c1 (stereo not drawn) [Compound P6, N-methyl-N-[1-(5-phenyl-2-pyrimidin-2-yl-1,2,4-triazol-3-yl)ethyl]-3,5-bis(trifluoromethyl)benzamide]
≥ 80%: mortality at 500 ppm [1] | percent effect (mortality or growth inhibition) at 200 ppm [2]

CC#Cc1nc(C(C)N(C)C(=O)c2cc(C(F)(F)F)cc(C(F)(F)F)c2)n(-c2ncccn2)n1 (stereo not drawn) [Compound P8, N-methyl-N-[1(5-prop-1-ynyl-2-pyrimidin-2-yl-1,2,4-triazol-3-yl)ethyl]-3,5-bis(trifluoromethyl) benzamide]
≥ 80%: percent control (mortality, anti-feedant effect or growth inhibition) at 200 ppm [3] | percent effect (mortality or growth inhibition) at 200 ppm [4] | percent effect (mortality or growth inhibition) at 200 ppm [2]

CC(c1nc(C#N)nn1-c1ncccn1)N(C)C(=O)c1cc(C(F)(F)F)cc(C(F)(F)F)c1 (stereo not drawn) [Compound P9, N-[1-(5-cyano-2-pyrimidin-2-yl-1,2,4-triazol-3-yl)ethyl]-N-methyl-3,5-bis(trifluoromethyl) benzamide]
≥ 80%: mortality at 500 ppm [1] | percent effect (mortality or growth inhibition) at 200 ppm [4]

C=C(F)c1nc(C(C)N(C)C(=O)c2cc(C(F)(F)F)cc(C(F)(F)F)c2)n(-c2ncccn2)n1 (stereo not drawn) [Compound P14, N-[1-[5-(1-fluorovinyl)-2-pyrimidin-2-yl-1,2,4-triazol-3-yl]ethyl]-N-methyl-3,5-bis(trifluoromethyl) benzamide]
≥ 80%: percent control (mortality, anti-feedant effect or growth inhibition) at 200 ppm [3] | mortality at 50 ppm [5] | percent effect (mortality or growth inhibition) at 200 ppm [4] | percent effect (mortality or growth inhibition) at 200 ppm [2]

CC(c1nc(S(=O)(=O)C(F)(F)F)nn1-c1ncccn1)N(C)C(=O)c1cc(C(F)(F)F)cc(C(F)(F)F)c1 (stereo not drawn) [Compound P19, N-methyl-N-[1-[2-pyrimidin-2-yl-5-(trifluoromethylsulfonyl)-1,2,4-triazol-3-yl]ethyl]-3,5-bis(trifluoromethyl)benzamide]
≥ 80%: percent control (mortality, anti-feedant effect or growth inhibition) at 200 ppm [3] | percent effect (mortality or growth inhibition) at 200 ppm [2]

CC(c1nc(SC(F)(F)F)nn1-c1ncccn1)N(C)C(=O)c1cc(C(F)(F)F)cc(C(F)(F)F)c1 (stereo not drawn) [Compound P20, N-methyl-N-[1-[2-pyrimidin-2-yl-5-(trifluoromethylsulfanyl)-1,2,4-triazol-3-yl]ethyl]-3,5-bis(trifluoromethyl)benzamide]
≥ 80%: mortality at 500 ppm [1] | percent effect (mortality or growth inhibition) at 200 ppm [2] | percent control (mortality, anti-feedant effect or growth inhibition) at 200 ppm [6]

C[C@H](NC(=O)c1cc(C(F)(F)F)cc(C(F)(F)F)c1)c1nc(OC(F)(F)F)nn1-c1ncccn1 [Compound P23, N-[(1S)-1-[2-pyrimidin-2-yl-5-(trifluoromethoxy)-1,2,4-triazol-3-yl]ethyl]-3,5-bis(trifluoromethyl)benzamide]
≥ 80%: percent effect (mortality or growth inhibition) at 200 ppm [4] | percent effect (mortality or growth inhibition) at 200 ppm [2] | percent control (mortality, anti-feedant effect or growth inhibition) at 200 ppm [6]

CC(c1nc(Br)nn1-c1ccccn1)N(C)C(=O)c1cc(C(F)(F)F)cc(C(F)(F)F)c1 (stereo not drawn) [Compound P24, N-[1-[5-bromo-2-(2-pyridyl)-1,2,4-triazol-3-yl]ethyl]-N-methyl-3,5-bis(trifluoromethyl) benzamide]
≥ 80%: mortality at 500 ppm [1] | percent effect (mortality or growth inhibition) at 200 ppm [4] | percent effect (mortality or growth inhibition) at 200 ppm [2] | percent control (mortality, anti-feedant effect or growth inhibition) at 200 ppm [6]

CC(NC(=O)c1cc(C(F)(F)F)cc(C(F)(F)F)c1)c1nc(OCC(F)(F)F)nn1-c1ncccn1 (stereo not drawn) [Compound P27, N-[1-[2-pyrimidin-2-yl-5-(2,2,2-trifluoroethoxy)-1,2,4-triazol-3-yl]ethyl]-3,5-bis(trifluoromethyl) benzamide]
≥ 80%: percent control (mortality, anti-feedant effect or growth inhibition) at 200 ppm [3] | percent effect (mortality or growth inhibition) at 200 ppm [4] | percent effect (mortality or growth inhibition) at 200 ppm [2] | percent control (mortality, anti-feedant effect or growth inhibition) at 200 ppm [6]

CC(NC(=O)c1cc(Br)cc(C(F)(F)F)c1)c1nc(Br)nn1-c1ncccn1 (stereo not drawn) [Compound P31, 3-bromo-N-[1-(5-bromo-2-pyrimidin-2-yl-1,2,4-triazol-3-yl)ethyl]-5-(trifluoromethyl) benzamide]
≥ 80%: mortality at 12 ppm [7] | mortality at 500 ppm [1] | percent control (mortality, anti-feedant effect or growth inhibition) at 200 ppm [3] | percent effect (mortality or growth inhibition) at 200 ppm [4] | percent effect (mortality or growth inhibition) at 200 ppm [2] | percent control (mortality, anti-feedant effect or growth inhibition) at 200 ppm [6]

CC(NC(=O)c1cc(C(F)(F)F)cc(C(F)(F)F)c1)c1nc(Cl)nn1-c1ncccn1 (stereo not drawn) [Compound P34, N-[1-(5-chloro-2-pyrimidin-2-yl-1,2,4-triazol-3-yl)ethyl]-3,5-bis(trifluoromethyl) benzamide]
≥ 80%: mortality at 12 ppm [7] | percent control (mortality, anti-feedant effect or growth inhibition) at 200 ppm [3] | percent effect (mortality or growth inhibition) at 200 ppm [4] | percent effect (mortality or growth inhibition) at 200 ppm [2] | percent control (mortality, anti-feedant effect or growth inhibition) at 200 ppm [6]

CC(=O)c1nc(C(C)NC(=O)c2cc(C(F)(F)F)cc(C(F)(F)F)c2)n(-c2ncccn2)n1 (stereo not drawn) [Compound P35, N-[1-(5-acetyl-2-pyrimidin-2-yl-1,2,4-triazol-3-yl)ethyl]-3,5-bis(trifluoromethyl) benzamide]
≥ 80%: percent control (mortality, anti-feedant effect or growth inhibition) at 200 ppm [3] | percent effect (mortality or growth inhibition) at 200 ppm [4] | percent effect (mortality or growth inhibition) at 200 ppm [2] | percent control (mortality, anti-feedant effect or growth inhibition) at 200 ppm [6]
